Test results from patent publication US7183411B2, “Naphthol, quinoline and isoquinoline-derived urea modulators of vanilloid VR1 receptor” (Janssen Pharmaceutica N.V., priority 2002, dated 2007).
Read-outs that look alike come from different tables or passages of the source.

Legend:
[1] = biological target: recombinant rat VR1 (rVR1/HEK293) (Rattus norvegicus, UniProt O35433); test: Broadly stimulated recombinant rat VR1 functional assay (Ca2+ influx, FLIPR); conditions: for IC50: recombinant rat VR1, Ca2+ influx
Source text: In an effort to identify potent and efficacious antagonists at human and rat VR1 that were active under conditions simulating aspects of in vivo inflammation functional assays were developed using FLIPR to determine antagonist activity against endogenous activators and stimuli likely to be present in inflammation. Cell lines were constructed that stably expressed recombinant rat VR1 (rVR1/HEK293). Cells were exposed to various stimuli at their EC80, with the exception of the low pH and DTT stimuli.
These studies were corroborated and further studies were performed to confirm that the phorbol ester effect was not due to direct effects on the channel. […] Cells were challenged with 300 nM PMA (˜EC80) after 3 min in the indicated antagonist.
Cells were challenged with 5–10 mM DTT to stimulate VR1 after 3 min incubation in compound.
We performed assays similar to those described for the human recombinant receptor with the exception that a lower pH was required in the Ca^2+ influx assay at the rat recombinant receptor.

[2] = biological target: T1, human VR1 (Homo sapiens, UniProt Q8NER1); test: Broadly stimulated recombinant human VR1 functional assay (Ca2+ influx, FLIPR); type: cell-based
T1 construct: expressed in transfected cells; host or cells: HEK293

[3] = biological target: T2, human VR1 vanilloid receptors (Homo sapiens, UniProt Q8NER1); test: [3H] RTX binding assay, hVR1 membranes from transfected HEK293 cells; conditions: for Ki: human VR1, read-out: Receptor binding Ki
T2 construct: expressed in transfected cells; host or cells: HEK293
Protocol: Compounds of the present invention were tested for their ability to inhibit the binding of [^3H] RTX to hVR1 receptors in a [^3H] RTX binding assay as previously described (Zhang, Sui-Po. Improved ligand binding assays for vanilloid receptors. PCT Int. Appl. (2002), 29 pp. CODEN: PIXXD2 WO 0233411 A1 20020425 AN 2002:315209; Grant, Elfrida R.; Dubin, Adrienne E.; Zhang, Sui-Po; Zivin, Robert A.; Zhong, Zhong Simultaneous intracellular calcium and sodium flux imaging in human vanilloid receptor 1 (VR1)-transfected human embryonic kidney cells: a method to resolve ionic dependence of VR1-mediated cell death. Journal of Pharmacology and Experimental Therapeutics (2002), 300(1), 9–17.)
HEK293 cells were transfected with human VR1 vanilloid receptors and washed with Hank's Balanced Salt Solution, dissociated with cell dissociation buffer (Sigma), and then centrifuged at 1000×g for 5 min. Cell pellets were homogenized in cold 20 mM HEPES buffer, pH 7.4, containing 5.8 mM NaCl, 320 mM sucrose, 2 mM MgCl2, 0.75 CaCl2 and 5 mM KCl and centrifuged at 1000×g for 15 min. The resultant supernate was then centrifuged at 40000×g for 15 min. The pelleted membranes were kept in an −80° C. freezer.
Approximately 120 μg protein/ml from membranes were incubated with indicated concentrations of [^3H] RTX in 0.5 ml of the HEPES buffer (pH 7.4) containing 0.25 mg/mL fatty acid-free bovine serum albumin at 37° C. for 60 min. The reaction mixture was then cooled to 4° C., 0.1 mg α1-acid glycoprotein added to each sample and incubated at 4° C. for 15 min. The samples were centrifuged at 18500×g for 15 min. The tip of the microcentrifuge tube containing the pellet was cut off. Bound radioactivity was quantified by scintillation counting. Non-specific binding was tested in the presence of 200 nM unlabeled RTX.

[4] = biological target: T1, human VR1; test: Human VR1 functional assay (FLIPR intracellular Ca2+, capsaicin challenge); type: cell-based; conditions: read-out: In vitro functional assays hIC50 or EC50
Protocol: The functional activity of the test compounds was determined by measuring changes in intracellular calcium concentration using a Ca^++-sensitive fluorescent dye and FLIPR™ technology.
HEK293 Cells expressing human VR1 were grown on poly-D-lysine coated 96 well black-walled plates (BD 354640) and 2 days later loaded with Fluo-3/AM for 1 hour and subsequently tested for agonist-induced increases in intracellular Ca^2+ levels using FLIPR™ technology. […] EC50 or IC50 values were determined from dose-response studies.

[5] = tested on: Carrageenan paw-induced thermal hyperalgesia; test: Carrageenan paw-induced thermal hyperalgesia; type: in vivo; conditions: rat, po, reversal of carrageenan thermal hyperalgesia; read-out: CgHP ED50
Protocol: Each rat is placed on a heated surface (51° C.) in order to measure the time necessary to elicit a response, and an initial (baseline) response time to a thermal stimuli was recorded for each animal. A response is defined as any shaking, licking, or tucking of the treated paw or jumping. Animals not treated with a test compound respond in approximately 20 seconds. The maximal exposure time permitted is 60 seconds to prevent tissue damage. Rats were injected with an irritant (e.g., 1% carrageenan solution in 0.9% saline) subcutaneously into the sub-plantar tissue of the left hind paw to stimulate an acute inflammatory reaction.
Two hours later, the response time of the animal to the thermal stimulus was evaluated and compared to the animal's baseline response time. This shorter response time was recorded as percent hyperalgesia (% H). A cut-off value for % H (usually 75%) was used during analysis to ensure that the animals were hyperalgesic. Animals were then dosed with test drug or vehicle.
At some time(s) later (typically 45 and 90 minutes), the response time of the animal to the thermal stimulus was again evaluated. For each time point, a percent reversal of hyperalgesia (% R) was calculated using the following formula: % R=(Drug Latency−Carrageenan latency)/(Baseline latency−Carrageenan latency). ED50 values were calculated from % R obtained at several drug doses.

[6] = biological target: T3, VR1 expressed endogenously on small rat dorsal root ganglion (DRG) neurons (Rattus norvegicus, UniProt O35433); test: Electrophysiologic functional assay using dissociated rat DRG cells; type: cell-based; conditions: read-out: In vitro functional assays Estimated pA2 (rat) (converted)
T3 construct: VR1 expressed endogenously on small rat dorsal root ganglion (DRG) neurons; endogenous in cells; host or cells: dissociated rat DRG neurons
Protocol: Compounds are tested for their activity on VR1 expressed endogenously on small rat dorsal root ganglion (DRG) neurons. DRG neurons from normal rats were dissociated (see methods in Chaplan et al., 2003) and whole cell currents mediated by VR1 were recorded using the whole cell patch clamp technique.

[7] = recombinant human VR1, Ca2+ influx, stimulus 300 nM PMA, read-out: IC50, PKC phosphorylation
[8] = recombinant human VR1, Ca2+ influx, stimulus low pH (pH 6.5), read-out: IC50, Low pH

Sequence of recombinant rat VR1 (rVR1/HEK293) (O35433 whole entry): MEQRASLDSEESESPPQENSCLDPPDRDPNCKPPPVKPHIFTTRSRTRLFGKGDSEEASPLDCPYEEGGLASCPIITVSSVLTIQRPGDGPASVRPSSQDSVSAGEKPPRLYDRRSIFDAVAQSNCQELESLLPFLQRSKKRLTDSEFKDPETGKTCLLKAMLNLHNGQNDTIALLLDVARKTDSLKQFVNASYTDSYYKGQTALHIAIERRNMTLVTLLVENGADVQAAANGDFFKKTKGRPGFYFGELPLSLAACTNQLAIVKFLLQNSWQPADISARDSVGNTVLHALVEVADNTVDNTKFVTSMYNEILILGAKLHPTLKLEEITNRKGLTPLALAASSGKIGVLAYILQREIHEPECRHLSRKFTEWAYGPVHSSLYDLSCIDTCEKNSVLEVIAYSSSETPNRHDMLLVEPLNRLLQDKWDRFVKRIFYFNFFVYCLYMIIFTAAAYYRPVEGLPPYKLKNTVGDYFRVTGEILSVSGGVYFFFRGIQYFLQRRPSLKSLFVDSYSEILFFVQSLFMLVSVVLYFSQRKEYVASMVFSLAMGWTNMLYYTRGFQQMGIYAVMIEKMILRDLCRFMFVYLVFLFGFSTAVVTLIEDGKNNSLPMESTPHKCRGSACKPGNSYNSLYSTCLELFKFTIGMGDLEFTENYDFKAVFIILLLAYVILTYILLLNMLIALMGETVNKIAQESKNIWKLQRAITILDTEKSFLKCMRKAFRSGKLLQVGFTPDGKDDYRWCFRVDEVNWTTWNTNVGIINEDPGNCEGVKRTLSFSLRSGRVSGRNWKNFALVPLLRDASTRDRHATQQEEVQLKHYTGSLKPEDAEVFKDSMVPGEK
T1 sequence (Q8NER1 whole entry): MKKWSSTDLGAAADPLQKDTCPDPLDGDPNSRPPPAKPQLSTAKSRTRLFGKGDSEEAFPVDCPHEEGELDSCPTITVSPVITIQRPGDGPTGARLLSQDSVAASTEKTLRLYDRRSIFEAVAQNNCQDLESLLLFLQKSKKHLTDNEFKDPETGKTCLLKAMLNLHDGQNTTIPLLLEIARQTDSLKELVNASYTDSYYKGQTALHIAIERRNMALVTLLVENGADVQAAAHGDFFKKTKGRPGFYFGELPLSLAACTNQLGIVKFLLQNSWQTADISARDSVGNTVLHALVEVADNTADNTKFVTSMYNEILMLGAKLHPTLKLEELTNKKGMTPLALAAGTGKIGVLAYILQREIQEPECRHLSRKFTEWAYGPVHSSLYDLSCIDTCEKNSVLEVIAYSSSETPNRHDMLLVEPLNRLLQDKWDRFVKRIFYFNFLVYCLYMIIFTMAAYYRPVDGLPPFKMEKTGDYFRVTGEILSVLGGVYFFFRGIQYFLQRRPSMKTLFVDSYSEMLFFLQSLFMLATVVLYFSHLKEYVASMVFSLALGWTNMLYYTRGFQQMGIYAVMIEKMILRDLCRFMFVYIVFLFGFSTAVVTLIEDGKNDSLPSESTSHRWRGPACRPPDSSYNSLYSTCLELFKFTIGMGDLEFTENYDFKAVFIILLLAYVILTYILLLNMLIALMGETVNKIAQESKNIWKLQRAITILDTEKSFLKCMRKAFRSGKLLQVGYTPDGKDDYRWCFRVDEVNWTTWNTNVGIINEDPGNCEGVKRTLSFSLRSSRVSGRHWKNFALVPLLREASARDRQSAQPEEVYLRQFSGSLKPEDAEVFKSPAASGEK
T2 sequence (Q8NER1 whole entry): as above
T3 sequence (O35433 whole entry): as the sequence (O35433 whole entry) above

Row | Ki [3] [nM] | IC50 or EC50 [4] [nM] | SMILES | also measured
1 | – | – | Oc1cc2c(cc1O)CN(C(=S)NCCc1ccc(Cl)cc1)CCC2 [Capsazepine, capsazepine] | IC50 ([1]; IC50, Anandamide, stimulus anandamide 10 μM): 1300 nM; IC50 ([1]; IC50, Low pH, stimulus low pH (pH 5.9)): 5000 nM; IC50 ([1]; IC50, PKC phosphorylation at low pH, PMA at low pH): 10000 nM; IC50 ([1]; IC50, PKC phosphorylation, stimulus 300 nM PMA): 10000 nM; IC50 ([2]; human recombinant receptor, FIG. 1, read-out: potency to inhibit Ca2+ activity induced by the panel of stimuli): 100 to 300 nM; IC50 ([2]; recombinant human VR1, Ca2+ influx, PMA at low pH, read-out: IC50, PKC phosphorylation at low pH): 370 nM; IC50 [2, 7]: 160 nM; IC50 [2, 8]: 110 nM
2 | 12.6 | 8 | O=C(NCCc1ccc(Cl)c(Cl)c1)Nc1cccc2cnccc12 [Compound 1] | –
3 | 41.2 | 19 | O=C(NCCc1cccc(C(F)(F)F)c1)Nc1cccc2cnccc12 [Compound 2] | –
4 | 88.7 | 36 | O=C(NCCc1ccc(Cl)cc1)Nc1cccc2cnccc12 [Compound 3] | –
5 | 6.87 | – | O=C(NCc1ccc(C(F)(F)F)cc1)Nc1cccc2cnccc12 [Compound 4] | ED50 [5]: 0.804 mg/kg
6 | 8.87 | 4 | O=C(NCc1ccc(Cl)c(Cl)c1)Nc1cccc2cnccc12 [Compound 5] | –
7 | 31 | 5.6 | O=C(NCc1ccc(Cl)cc1)Nc1cccc2cnccc12 [Compound 6] | –
8 | 22.7 | 11 | O=C(NCc1cccc(C(F)(F)F)c1)Nc1cccc2cnccc12 [Compound 7] | –
9 | 12.9 | 18 | Cc1cc2c(NC(=O)NCc3ccc(Cl)c(Cl)c3)cccc2cn1 [Compound 8] | –
10 | 39 | 9.4 | Cc1cc2c(NC(=O)NCc3cccc(C(F)(F)F)c3)cccc2cn1 [Compound 9] | –
11 | 5.62 | – | COc1ccc(C(CNC(=O)Nc2cccc3cnccc23)CC2CCCCC2)cc1 (stereo not shown) [Compound 12] | –
12 | 0.12 | 20 | CC(C)(C)c1ccc(CNC(=O)Nc2cccc3ccc(O)cc23)cc1 [Compound 13] | –
13 | 3.27 | 4.9 | O=C(NCc1ccc(Cl)cc1)Nc1cccc2ccc(O)cc12 [Compound 14] | –
14 | – | 3700 | O=C(NCc1cccnc1)Nc1cccc2ccc(O)cc12 [Compound 15] | inhibition at 1 µM ([3]; human VR1, 1 μM compound, read-out: Receptor binding % Inhibition @ 1 μM): 11%
15 | 0.11 | 27 | O=C(NCc1ccc(OC(F)(F)F)cc1)Nc1cccc2ccc(O)cc12 [Compound 16] | –
16 | 0.1 | 4 | O=C(NCc1ccc(C(F)(F)F)cc1)Nc1cccc2ccc(O)cc12 [Compound 17] | ED50 [5]: 20 mg/kg
17 | 93.5 | 45 | O=C(NCc1ccccc1)Nc1cccc2ccc(O)cc12 [Compound 18] | –
18 | 0.38 | 26 | O=C(NCc1cccc(C(F)(F)F)c1)Nc1cccc2ccc(O)cc12 [Compound 19] | –
19 | 1290 | 680 | COc1ccc(CCNC(=O)Nc2cccc3cnccc23)cc1 [Compound 21] | –
20 | 1.28 | 3.3 | O=C(NCc1ccc(OC(F)(F)F)cc1)Nc1cccc2cnccc12 [Compound 22] | –
21 | 53.5 | – | O=C(NCCc1ccccc1)Nc1cccc2ccc(O)cc12 [Compound 23] | –

Row | Ki [3] [nM] | IC50 or EC50 [4] [nM] | SMILES | also measured
22 | 3280 | – | O=C(Nc1cccc2ccc(O)cc12)N(Cc1ccccc1)Cc1ccccc1 [Compound 25] | –
23 | 18600 | 10000 | CN(Cc1ccccc1)C(=O)Nc1cccc2ccc(O)cc12 [Compound 26] | –
24 | 1.22 | 97 | O=C(NCCc1ccc(Cl)c(Cl)c1)Nc1cccc2ccc(O)cc12 [Compound 27] | –
25 | 36.1 | 44 | O=C(NCc1ccc(C(F)(F)F)nc1)Nc1cccc2ccc(O)cc12 [Compound 29] | –
26 | 581 | – | CN(Cc1ccc(Cl)c(Cl)c1)C(=O)Nc1cccc2ccc(O)cc12 [Compound 30] | –
27 | 2.03 | 15 | O=C(NCc1ccc(Cl)c(Cl)c1)Nc1cccc2ccc(O)cc12 [Compound 31] | –
28 | 2540 | – | O=C(NCc1nc2ccccc2[nH]1)Nc1cccc2ccc(O)cc12 [Compound 32] | –
29 | 1.3 | 5.8 | CC(C)(C)c1ccc(CCNC(=O)Nc2cccc3cnccc23)cc1 [Compound 35] | –
30 | 22.4 | – | O=C(NCCc1ccc(C(F)(F)F)cc1)Nc1cccc2cnccc12 [Compound 36] | –
31 | 193 | 45 | COc1ccc(CNC(=O)Nc2cccc3cnccc23)cc1 [Compound 37] | –
32 | 6.03 | 11 | O=C(NCCc1ccc(OC(F)(F)F)cc1)Nc1cccc2cnccc12 [Compound 38] | –
33 | 7.22 | – | O=C(NCc1ccc(F)c(F)c1)Nc1cccc2ccc(O)cc12 [Compound 42] | –
34 | 2.79 | – | O=C(NCc1ccc(Cl)cc1Cl)Nc1cccc2ccc(O)cc12 [Compound 47] | –
35 | 7.35 | – | O=C(NCc1ccc(C(F)(F)F)cc1)Nc1cccc2c(Cl)nccc12 [Compound 55, 1-(1-Chloro-isoquinolin-5-yl)-3-(4-trifluoromethyl-benzyl)-urea] | Kb [6]: < 30 nM
36 | 5.16 | – | O=C(NCc1cc(C(F)(F)F)cc(C(F)(F)F)c1)Nc1cccc2ccc(O)cc12 [Compound 58] | –
37 | 7340 | – | O=C(NCc1ccc(C(F)(F)F)cc1)Nc1cccc2cncc(Cl)c12 [Compound 59] | –
38 | 129 | 10000 | CN(CC1CCCCC1)c1ccc(CNC(=O)Nc2cnc3ccccc3c2)cc1 [Compound 65] | –
39 | – | – | OO [Compound H2O2, H2O2] | EC80 for H2O2-induced Ca2+ flux ([2]; VR1/HEK cells, species not stated): 0.015 % H2O2
40 | – | – | CCCCCCCCCCCCCC(=O)O[C@@H]1[C@@H](C)[C@@]2(O)[C@@H](C=C(CO)C[C@]3(O)C(=O)C(C)=C[C@@H]23)[C@@H]2C(C)(C)[C@]12OC(C)=O [PMA, phorbol-12-myristate-13-acetate] | EC50 ([1]; read-out: EC50 (increase in intracellular Ca2+), agonist at rat recombinant VR1): 90 nM; EC50 ([2]; agonist at human recombinant VR1, read-out: EC50 (increase in intracellular Ca2+)): 90 nM
41 | – | – | Cl.Cl.Cl.Cl.Cl.Cl.N.N.N.N.N.N.N.N.N.N.N.N.N.N.[O-2].[O-2].[Ru+3].[Ru+3].[Ru+4] [Ruthenium Red, ruthenium red] | IC50 ([1]; read-out: IC50, Anandamide, stimulus anandamide 10 μM): 1860 nM; IC50 ([1]; read-out: IC50, PKC phosphorylation, stimulus 300 nM PMA): 300 nM; IC50 [2, 7]: 500 nM; IC50 [2, 8]: 500 nM
42 | – | – | CCCCC/C=C\C/C=C\C/C=C\C/C=C\CCCC(=O)NCCO [anandamide, Anandamide] | EC50 [1]: 5000 nM; EC50 [2]: 3000 nM
